The record followed here is US20230197192A1, “SELECTING NEOANTIGENS FOR PERSONALIZED CANCER VACCINE” (AMAZON TECHNOLOGIES, INC., priority 2020, published 2023).

Where two headings read alike, the source gives them in different places. Where no end group is shown, it is not given here.

A short description of this series: Visible dissolution of peptides in DMSO / 0.9% NaCl for pool formulation. It is filed as physicochemical. To be noted: for Visual solubility (appearance of the peptide solution): Peptide Synthesis Engineering Run Batch for Sample GGGGG, visual appearance of the peptide solution (Clear / Semi Cloudy / Cloudy). Here is the method:
Groups of peptides are selected and pooled. Up to four (4) pools with not more than (NMT) five (5) peptides in each pool were prepared. Each peptide was dissolved in 5.538% (v/v) DMSO followed by 0.9% NaCl solution, at a concentration of each peptide at 0.4158 mg/mL. Peptides which were visibly dissolved were accepted for that group's pool. Upon successful pooling of all peptides within a group, the pool was filtered through a 0.2 μm Nylon filter. Peptides were shipped in sterile tubes and labeled with Pool name, lot #, components, manufacturing data, quantity/concentration and storage conditions.

Where [1] appears, read: Peptide synthesis engineering run batch for sample DDDDD_2020, appearance of the solution.
[2] abbreviates: Peptide synthesis engineering run batch for sample FFFFF, appearance of the solution.

Take `CC(C)C[C@H](NC(=O)[C@@H](NC(=O)[C@H](Cc1c[nH]c2ccccc12)NC(=O)[C@H](C)NC(=O)[C@H](C)NC(=O)[C@@H](NC(=O)[C@H](Cc1ccccc1)NC(=O)[C@H](CCCCN)NC(=O)[C@H](C)N)C(C)C)[C@@H](C)O)C(=O)N[C@@H](CCCCN)C(=O)N[C@@H](C)C(=O)N[C@@H](C)C(=O)N[C@@H](C)C(=O)O` [GGGGG.51]: the “Visual solubility (appearance of the peptide solution)” value (shortened to “Visual solubility”) is “Clear”.
Still for that read-out and setting: the same measure for AAIQEKKEI [GGGGG.39]: “Clear”; for APGSSRLA [GGGGG.43]: “Clear”.
Take APPTRLAPPQRPPPPS [DDDDD.22]: under setting [1], the Solubility result is “Clear”.
Still for that read-out and setting: the same measure for AQSRSSPTL [DDDDD.36]: “Clear”.
The same measure, in the same setting: the same measure for ARPEAQSRSSPTLES [DDDDD.12]: “Clear”.
ARPPGGSGPLRVLIPDLQL [GGGGG.3]: the “Visual solubility” value was “Clear”.
In the case of ASSQAGTVTL [DDDDD.38], the Solubility result under setting [1] is “Clear”.
For the compound AVVSYVVADMKEMLPRS [DDDDD.25], the Solubility result under setting [1] was “Clear”.
DPRLVIFSGCATRLFEA [DDDDD.11]: under setting [1], the Solubility result was “Cloudy”.
Same read-out and setting: the same measure for DSSIPSAATL [DDDDD.42]: “Clear”; for EAQSRSSPTL [DDDDD.40]: “Clear”.
Consider EDTGQDMLALFLRTNRQAAK [FFFFF.8], for which the Solubility entry under setting [2] is given as “Clear”.
For the compound FEAPGFNTTTA [DDDDD.45], under setting [1], the Solubility result was “Clear”.
As to FETTTGFDPHSGTPLSDHEAL [GGGGG.7], the “Visual solubility” value is recorded as “Clear”.
In the case of FGALHEDANKVIKPTSSNTA [DDDDD.5], the Solubility entry under setting [1] is “Clear”.
FLSPGQLLQEPRTSLLIINNT [FFFFF.20]: the Solubility entry under setting [2] was “Cloudy”.
Consider FQSLCQAPPLLKDKVLTALE [GGGGG.8], for which the “Visual solubility” value is listed as “Clear”.
On the same count and under the same terms, the same measure for GALPVASPASL [GGGGG.45]: “Clear”.
Regarding GQLFPYRARIEIKNKF [DDDDD.27], the Solubility entry under setting [1] is given as “Clear”.
Still for that read-out and setting: the same measure for GQRRDRLLTVQALSGL [DDDDD.14]: “Clear”.
Take HKDAVTCVNFSSSGHLLASGSR [FFFFF.29]: under setting [2], the Solubility entry is on record as “Clear”.
On to “HLINYQDDAELATHALPELTKLLNDEDPV [GGGGG.14]”, for which the “Visual solubility” value is reported as “Clear”.
Same read-out and setting: the same measure for IQSIYGGLPKVPAKPKEPTIPH [GGGGG.23]: “Clear”.
Turning to KDKIWLRRTKPSKHQYQICLAIDDSSSM [DDDDD.17], under setting [1], the Solubility result is on record as “Clear”.
For KLESTVGSPKKPLSDLGKLS [FFFFF.22], the Solubility result under setting [2] is listed as “Clear”.
As for KNPQMGDPGSLQPKSAETMNNIDRLRME [DDDDD.6], the Solubility result under setting [1] is on record as “Clear”.
Take KVTNCFSV [DDDDD.33]: the Solubility result under setting [1] is recorded as “Clear”.
For the compound LAPGQPFL [GGGGG.50], the “Visual solubility” value was “Clear”.
Same read-out and setting: the same measure for LDRQHVQHQLLVILKELRK [GGGGG.34]: “Clear”.
Take LGIGGLQDL [FFFFF.49]: the Solubility result under setting [2] was “Clear”.
Turning to LIKPPAHTSAILTVLR [GGGGG.30], the “Visual solubility” value is recorded as “Clear”.
As to LLGTVDKHSVKVTNCFSVPHN [DDDDD.16], the Solubility result under setting [1] was “Clear”.
Consider LLLQEEEL [FFFFF.42], for which the Solubility entry under setting [2] is recorded as “Clear”.
Regarding LNGSEPTGAYSIKGFFADYEIPN [DDDDD.26], the Solubility result under setting [1] is “Clear”.
On the same count and under the same terms, the same measure for LQMLCPQEAPQILSRLEAVR [DDDDD.7]: “Clear”.
On to LSPYPEHL [FFFFF.50], for which the Solubility result under setting [2] was “Clear”.
The same measure, in the same setting: the same measure for MILASPRYVDQVTEFLQQKLK [FFFFF.18]: “Clear”.
On to MSKPKWPLEDEISKPEVP [DDDDD.3], for which, under setting [1], the Solubility result is given as “Clear”.
In the case of MSYELKCAQEL [GGGGG.49], the “Visual solubility” value was “Clear”.
The same measure, in the same setting: the same measure for MSYELKCAQELSQKQDG [GGGGG.31]: “Clear”.
Turning to NQPKIGGPLGTGAFEAPGFNTTTATLGF [DDDDD.4], under setting [1], the Solubility entry is recorded as “Clear”.
For NSASMKQAL [FFFFF.47], the Solubility result under setting [2] is “Clear”.
With NSLQNQALQTLQERLHEADAT [GGGGG.20], the “Visual solubility” value is listed as “Clear”.
In the case of NSLTSSVL [FFFFF.45], the Solubility entry under setting [2] was “Clear”.
In the case of NTSALPLVSL [DDDDD.41], the Solubility entry under setting [1] is reported as “Clear”.
With PLNPPASTAFSQEPHSGSPA [FFFFF.24], under setting [2], the Solubility entry is given as “Clear”.
For PSAPQQEGVASKEKEEV [GGGGG.4], the “Visual solubility” value was “Clear”.
Regarding PTLPQPASHFSPPPPPPPLPP [FFFFF.5], under setting [2], the Solubility entry is “Clear”.
Regarding QAYNALTL [GGGGG.41], the “Visual solubility” value is given as “Clear”.
Regarding QELSPEKLKSWGGSLLGPWLSSGLKPLK [DDDDD.18], the Solubility result under setting [1] is “Clear”.
With RDILELGGPEEDAASGTISKKD [DDDDD.30], the Solubility entry under setting [1] was “Clear”.
As for RFIGPLPREGSVGSTSDYVSQS [GGGGG.22], the “Visual solubility” value was “Clear”.
Take RNLYISGFSLCFWLVLRRLVT [FFFFF.26]: the Solubility entry under setting [2] is on record as “Cloudy”.
As to RPGEDPSLHGIVKEQL [GGGGG.10], the “Visual solubility” value is “Clear”.
For the compound RRACGARTL [DDDDD.37], under setting [1], the Solubility entry is listed as “Clear”.
Same read-out and setting: the same measure for RRWRKLYRANSHLFQAKRFN [DDDDD.24]: “Clear”.
Consider RSLTLEPDPIVVPGNVTLSVVG [GGGGG.33], for which the Stability result is on record as “Clear”.
As for RSTTKSPGPSRHSKSPASTSSVN [FFFFF.21], the Solubility result under setting [2] is listed as “Clear”.
For RVGDLSPKQKEALAKPEA [GGGGG.27], the “Visual solubility” value was “Clear”.
For the compound RVLIPDLQL [GGGGG.42], the “Visual solubility” value is recorded as “Clear”.
With SAGENPLEEEE [DDDDD.43], the Solubility entry under setting [1] is recorded as “Clear”.
As to SAPGSSRLAA [GGGGG.46], the “Visual solubility” value was “Clear”.
On to SAPGSSRLAAV [GGGGG.36], for which the “Visual solubility” value is listed as “Clear”.
Still for that read-out and setting: the same measure for SAVMQEEI [GGGGG.38]: “Cloudy”; for SLCQAPPL [GGGGG.48]: “Clear”.
With SLLLQEEEL [FFFFF.39], under setting [2], the Solubility result is on record as “Cloudy”.
With SPRVAPGSAPPWPALRSLLH [GGGGG.1], the “Visual solubility” value is listed as “Clear”.
On to SQAGTVTL [DDDDD.31], for which, under setting [1], the Solubility result was “Clear”.
Take SSCMGGMNQRPILTIITLED [DDDDD.9]: the Solubility entry is on record as “Cloudy”.
In the case of STAPAEATL [GGGGG.44], the “Visual solubility” value is recorded as “Clear”.
On the same count and under the same terms, the same measure for STAPAEATLPKPGEAEAP [GGGGG.16]: “Clear”.
As to TGQDMLAL [FFFFF.36], under setting [2], the Solubility result is “Clear”.
Turning to TPSAPEGYDLKIGLFLAPRRGSLPD [FFFFF.17], the Solubility entry under setting [2] was “Clear”.
In the case of TSAPGSSRLAA [GGGGG.47], the “Visual solubility” value is listed as “Clear”.
On the same count and under the same terms, the same measure for TVDMLQCLRFPGLALPHTRAPSPLG [GGGGG.35]: “Clear”.
Take TWHRGDAL [DDDDD.34]: the Solubility entry under setting [1] is on record as “Clear”.
Consider TYPEADSFPSWAAAHRKGSS [DDDDD.20], for which the Solubility result is recorded as “Clear”.
In the case of VALSVRPI [GGGGG.37], the “Visual solubility” value was “Clear”.
Still for that read-out and setting: the same measure for VDLKFPASVPTGAQDLISKL [GGGGG.25]: “Clear”.
Turning to VGRAWDAITDHLVGLCISKSP [FFFFF.19], the Solubility result under setting [2] is listed as “Clear”.
For the compound VLGTSAPGSSRLAAVDLGG [GGGGG.2], the “Visual solubility” value was “Clear”.
Same read-out and setting: the same measure for VSPDIFMQSHL [GGGGG.40]: “Clear”.
Regarding WLPELPSLPSNGDPPAICE [DDDDD.15], the Solubility result under setting [1] is “Clear”.
Consider YGRTVVPFLVPGTSQLGQ [FFFFF.9], for which the Solubility result under setting [2] is recorded as “Clear”.
Same read-out and setting: the same measure for YIHTSVSQDFSQSVPGTTSSPL [FFFFF.10]: “Clear”; for YKTDLHSL [FFFFF.37]: “Clear”.
As for YSGIQESSSASPLSIKKCPI [GGGGG.29], the “Visual solubility” value is reported as “Clear”.
